Test results published in ChEMBL document CHEMBL1811755, “α-Tocotrienol quinone modulates oxidative stress response and the biochemistry of aging” (Bioorg Med Chem Lett, 2011).
Active and inactive are the calls of the source. The calls are words filed in the database; no cut-off is given here.

Columns and labels:
[1] = test system: Rattus norvegicus; assay: In vivo metabolic stability in rat assessed as parent compound remaining at 25 mg/kg, po; format: ADME, organism-based; design: dose 25 mg/kg, route oral
[2] = test system: Rattus norvegicus; assay: In vivo metabolic stability in rat assessed as parent compound remaining at 5 mg/kg, iv; format: ADME, organism-based; design: dose 5 mg/kg, route intravenous
[3] = Cytoprotectant activity against L-buthionine-(S,R)-sulfoximine-induced cell death in Friedreich ataxia patient fibroblasts assessed as increase of cell viability; format: functional, cell-based; conditions: Homo sapiens, Fibroblast
[4] = test system: Canis familiaris; assay: Prolongation of prothrombin time in dog at 100 mg/kg/day, po; format: functional, organism-based; conditions: Canis lupus familiaris
[5] = AUCt in dog plasma at 2 mg/kg, iv; format: ADME, organism-based, Canis lupus familiaris; design: dose 2 mg/kg, route intravenous
[6] = test system: Plasma; assay: AUC (infinity) in rat plasma at 2 mg/kg, iv; format: ADME, organism-based; design: time infinity, dose 2 mg/kg, route intravenous; conditions: in vivo
[7] = AUC (infinity) in dog plasma at 2 mg/kg, iv; format: ADME, organism-based, Canis lupus familiaris; design: dose 2 mg/kg, route intravenous, time infinity
[8] = Clearance in dog plasma at 2 mg/kg, iv; format: ADME, organism-based, Canis lupus familiaris; design: dose 2 mg/kg, route intravenous
[9] = test system: Fibroblast; assay: Ratio of compound EC50 to co-enzyme Q10 EC50 for cytoprotectant activity in Friedreich ataxia patient fibroblasts; format: functional, Homo sapiens
[10] = Cmax in mouse plasma at 25 mg/kg, ip; format: ADME, organism-based; design: dose 25 mg/kg, route intraperitoneal
[11] = Cmax in rat plasma at 25 mg/kg, po; format: ADME, organism-based; design: dose 25 mg/kg, route oral
[12] = Bioavailability in fasted rat plasma at 25 mg/kg, po; format: ADME, organism-based
[13] = test system: Serum; assay: Drug level in mouse serum at 25 mg/kg, ip; format: ADME, organism-based; design: dose 25 mg/kg, route intraperitoneal; conditions: in vivo
[14] = Drug level in dog cornea at 300 mg/kg/day, po qd for 7 days; format: ADME, organism-based, Canis lupus familiaris; design: route oral; conditions: read-out: Drug uptake
[15] = Apparent volume of distribution in dog plasma at 2 mg/kg, iv; format: ADME, organism-based, Canis lupus familiaris; design: dose 2 mg/kg, route intravenous; conditions: read-out: Vz
[16] = Bioavailability in fed rat plasma at 10 mg/kg, po; format: ADME, organism-based
[17] = test system: Mus musculus; assay: Ratio of drug level in mouse heart to serum at 25 mg/kg, ip; conditions: other tissue
[18] = AUC (infinity) in dog plasma at 10 mg/kg, po; format: ADME, organism-based, Canis lupus familiaris; design: time infinity, dose 10 mg/kg, route oral
[19] = test system: Brain; assay: AUC (infinity) in mouse brain at 25 mg/kg, ip; format: ADME, organism-based; design: time infinity, dose 25 mg/kg, route intraperitoneal; conditions: in vivo
[20] = test system: Canis familiaris; assay: Prolongation of activated partial thromboplastin time in dog at 100 mg/kg/day, po; format: functional, organism-based; conditions: Canis lupus familiaris
[21] = Cmax in rat plasma at 10 mg/kg, po; format: ADME, organism-based; design: dose 10 mg/kg, route oral
[22] = Toxicity in dog administered orally once daily for 28 days; format: organism-based, Canis lupus familiaris; conditions: in vivo, po
[23] = AUCt in rat plasma at 25 mg/kg, po; format: ADME, organism-based; design: dose 25 mg/kg, route oral
[24] = Volume of distribution at steady state in rat plasma at 2 mg/kg, iv; format: ADME, organism-based; design: dose 2 mg/kg, route intravenous; conditions: read-out: Vdss
[25] = Toxicity in rat administered orally once daily for 28 days; format: organism-based; conditions: in vivo, po
[26] = Terminal half life in mouse brain at 25 mg/kg, ip; format: ADME, organism-based; design: dose 25 mg/kg, route intraperitoneal; conditions: read-out: beta t1/2 (converted)
[27] = AUC (infinity) in mouse plasma at 25 mg/kg, ip; format: ADME, organism-based; design: time infinity, dose 25 mg/kg, route intraperitoneal
[28] = test system: Fibroblast; assay: Ratio of compound EC50 to resveratrol EC50 for cytoprotectant activity in Friedreich ataxia patient fibroblasts; format: functional, Homo sapiens
[29] = Tmax in mouse plasma at 25 mg/kg, ip; format: ADME, organism-based; design: dose 25 mg/kg, route intraperitoneal
[30] = AUCt in rat plasma at 2 mg/kg, iv; format: ADME, organism-based; design: dose 2 mg/kg, route intravenous
[31] = Cmax in human plasma at 2 mg/kg, po; format: ADME, organism-based; design: dose 2 mg/kg, route oral
[32] = test system: CHO; assay: Genotoxicity in CHO cells assessed as induction of micronucleus; format: toxicity, cell-based, Cricetulus griseus; conditions: chinese hamster
[33] = Cytoprotectant activity against L-buthionine-(S,R)-sulfoximine-induced cell death in Leigh syndrome patient fibroblasts assessed as increase of cell viability; format: functional, cell-based; conditions: Homo sapiens, Fibroblast
[34] = test system: Plasma; assay: Volume of infusion in rat plasma at 2 mg/kg, iv; format: ADME, organism-based; design: dose 2 mg/kg, route intravenous; conditions: in vivo
[35] = AUCt in dog plasma at 10 mg/kg, po; format: ADME, organism-based, Canis lupus familiaris; design: dose 10 mg/kg, route oral
[36] = Terminal half life in mouse plasma at 25 mg/kg, ip; format: ADME, organism-based; design: dose 25 mg/kg, route intraperitoneal; conditions: read-out: beta t1/2 (converted)
[37] = Tmax in rat plasma at 10 mg/kg, po; format: ADME, organism-based; design: dose 10 mg/kg, route oral
[38] = Bioavailability in dog plasma at 10 mg/kg, po; format: ADME, organism-based, Canis lupus familiaris
[39] = test system: Plasma; assay: Volume of infusion in dog plasma at 2 mg/kg, iv; format: ADME, organism-based, Canis lupus familiaris; design: dose 2 mg/kg, route intravenous; conditions: in vivo
[40] = AUCt in mouse plasma at 25 mg/kg, ip; format: ADME, organism-based; design: dose 25 mg/kg, route intraperitoneal
[41] = Cmax in dog plasma at 10 mg/kg, po; format: ADME, organism-based, Canis lupus familiaris; design: dose 10 mg/kg, route oral
[42] = test system: Mus musculus; assay: Ratio of drug level in mouse brain to serum at 25 mg/kg, ip
[43] = test system: Brain; assay: AUCt in mouse brain at 25 mg/kg, ip; format: ADME, organism-based; design: dose 25 mg/kg, route intraperitoneal; conditions: in vivo
[44] = AUCt in rat plasma at 10 mg/kg, po; format: ADME, organism-based; design: dose 10 mg/kg, route oral
[45] = Terminal half life in rat plasma at 2 mg/kg, iv; format: ADME, organism-based; design: dose 2 mg/kg, route intravenous; conditions: read-out: beta t1/2 (converted)
[46] = Tmax in rat plasma at 25 mg/kg, po; format: ADME, organism-based; design: dose 25 mg/kg, route oral
[47] = Tmax in dog plasma at 10 mg/kg, po; format: ADME, organism-based, Canis lupus familiaris; design: dose 10 mg/kg, route oral
[48] = Plasma concentration in dog at 300 mg/kg/day, po qd for 7 days; format: ADME, organism-based, Canis lupus familiaris; design: route oral
[49] = Drug level in dog retina at 300 mg/kg/day, po qd for 7 days; format: ADME, organism-based, Canis lupus familiaris; design: route oral; conditions: read-out: Drug uptake
[50] = Terminal half life in rat plasma at 10 mg/kg, po; format: ADME, organism-based; design: dose 10 mg/kg, route oral; conditions: read-out: beta t1/2 (converted)
[51] = Volume of distribution at steady state in dog plasma at 2 mg/kg, iv; format: ADME, organism-based, Canis lupus familiaris; design: dose 2 mg/kg, route intravenous; conditions: read-out: Vdss
[52] = Tmax in human plasma at 2 mg/kg, po; format: ADME, organism-based; design: dose 2 mg/kg, route oral
[53] = Cmax in mouse brain at 25 mg/kg, ip; format: ADME, organism-based; design: dose 25 mg/kg, route intraperitoneal
[54] = test system: Fibroblast; assay: Ratio of compound EC50 to idebenone EC50 for cytoprotectant activity in Friedreich ataxia patient fibroblasts; format: functional, Homo sapiens
[55] = test system: Heart; assay: Drug level in mouse heart at 25 mg/kg, ip; format: ADME, organism-based; design: dose 25 mg/kg, route intraperitoneal; conditions: in vivo
[56] = Terminal half life in dog plasma at 2 mg/kg, iv; format: ADME, organism-based, Canis lupus familiaris; design: dose 2 mg/kg, route intravenous; conditions: read-out: beta t1/2 (converted)
[57] = test system: Rattus norvegicus; assay: Prolongation of prothrombin time in rat at 100 mg/kg/day, po; format: functional, organism-based
[58] = test system: Rattus norvegicus; assay: Prolongation of activated partial thromboplastin time in rat at 100 mg/kg/day, po; format: functional, organism-based
[59] = AUC (infinity) in rat plasma at 10 mg/kg, po; format: ADME, organism-based; design: time infinity, dose 10 mg/kg, route oral
[60] = Terminal half life in dog plasma at 10 mg/kg, po; format: ADME, organism-based, Canis lupus familiaris; design: dose 10 mg/kg, route oral; conditions: read-out: beta t1/2 (converted)
[61] = Apparent volume of distribution in rat plasma at 2 mg/kg, iv; format: ADME, organism-based; design: dose 2 mg/kg, route intravenous; conditions: read-out: Vz
[62] = Tmax in mouse brain at 25 mg/kg, ip; format: ADME, organism-based; design: dose 25 mg/kg, route intraperitoneal
[63] = test system: Salmonella typhimurium; assay: Mutagenic activity in Salmonella Typhimurium by Ames test; format: toxicity, organism-based; conditions: salmonella enterica subsp. enterica serovar typhimurium
[64] = test system: Fibroblast; assay: Cytoprotectant activity against L-buthionine-(S,R)-sulfoximine-induced cell death in Leigh syndrome patient fibroblasts assessed as increase of cell viability up to 1000 nM; format: functional, cell-based; conditions: Homo sapiens
[65] = test system: Fibroblast; assay: Cytoprotectant activity against L-buthionine-(S,R)-sulfoximine-induced cell death in Friedreich ataxia patient fibroblasts assessed as increase of cell viability up to 1000 nM; format: functional, cell-based; conditions: Homo sapiens

## CC(C)=CCC/C(C)=C/CC/C(C)=C/CC[C@]1(C)CCc2c(C)c(O)c(C)c(C)c2O1 [ALPHA-TOCOTRIENOL]
[1]
  Stability: 5%
[2]
  Stability: 7%

## Oc1ccc(/C=C/c2cc(O)cc(O)c2)cc1 [RESVERATROL]
[3]
  EC50: 1440 nM

## CC(C)=CCC/C(C)=C/CC/C(C)=C/CC[C@@](C)(O)CCC1=C(C)C(=O)C(C)=C(C)C1=O [VATIQUINONE]
[4]
  Activity: Active
[5]
  AUC(0-t): 3410 ng·h/mL
[6]
  AUC: 1069 ng·h/mL
[7]
  AUC(0-inf): 3570 ng·h/mL
[8]
  clearance: 9.57 mL/min/kg
[9]
  Ratio EC50: 100
[10]
  Cmax: 1190 ng/mL
[11]
  Cmax: 248 ng/mL
[12]
  bioavailability: 4.1%
[13]
  Drug uptake: 300 ng/mL
[14]
  concentration at 168 h: 755 ng/g
[15]
  Vd: 6.25 L/kg
[16]
  bioavailability: 89%
[17]
  Ratio: 0.71 mL/g
[18]
  AUC(0-inf): 2820 ng·h/mL
[19]
  AUC: 10724 ng·h/g
[20]
  Activity: Active
[21]
  Cmax: 931 ng/mL
[22]
  NOAEL at 672 h: 100 mg/kg
[23]
  AUC(0-t): 961 ng·h/mL
[24]
  Vd: 0.222 L/kg
[25]
  NOAEL at 672 h: 100 mg/kg
[26]
  half-life: 12.4 h
[27]
  AUC(0-inf): 5860 ng·h/mL
[28]
  Ratio EC50: 100
[29]
  Tmax: 0.5 h
[30]
  AUC(0-t): 984 ng·h/mL
[31]
  Cmax: 167 ng/mL
[32]
  Activity: Non-toxic
[33]
  EC50: 30 nM
[34]
  Vi: 0.117 L/kg
[35]
  AUC(0-t): 2690 ng·h/mL
[36]
  half-life: 7.6 h
[37]
  Tmax: 3.5 h
[38]
  bioavailability: 17%
[39]
  Vi: 0.095 L/kg
[40]
  AUC(0-t): 4840 ng·h/mL
[41]
  Cmax: 442 ng/mL
[42]
  Ratio: 1.83 mL/g
[43]
  AUCt: 7738 ng·h/g
[44]
  AUC(0-t): 4730 ng·h/mL
[45]
  half-life: 3.5 h
[46]
  Tmax: 4 h
[47]
  Tmax: 2.8 h
[48]
  concentration at 168 h: 10000 ng/mL
[49]
  concentration at 168 h: 11200 ng/g
[50]
  half-life: 3.5 h
[51]
  Vd: 2.54 L/kg
[52]
  Tmax: 2 h
[53]
  Cmax: 539 ng/g
[3]
  EC50: 24 nM
[54]
  Ratio EC50: 100
[55]
  Drug uptake: 848 ng/g
[56]
  half-life: 7.5 h
[57]
  Activity: Active
[58]
  Activity: Active
[59]
  AUC(0-inf): 4780 ng·h/mL
[60]
  half-life: 7.6 h
[61]
  Vd: 3.73 L/kg
[62]
  Tmax: 12 h
[63]
  Activity: Non-toxic

## COC1=C(OC)C(=O)C(CCCCCCCCCCO)=C(C)C1=O [IDEBENONE]
[3]
  EC50: 850 nM

## COC1=C(OC)C(=O)C(C/C=C(\C)CC/C=C(\C)CC/C=C(\C)CC/C=C(\C)CC/C=C(\C)CC/C=C(\C)CC/C=C(\C)CC/C=C(\C)CC/C=C(\C)CCC=C(C)C)=C(C)C1=O
[64]
  Activity: inactive
[65]
  Activity: inactive
